Patent US8710043B2, “TRPM8 antagonists and their use in treatments” (Amgen Inc., priority 2011, dated 2014)

Molecular target: T1, human TRPM8 (Homo sapiens, UniProt Q7Z2W7)
T1 construct: expressed in transfected cells; host or cells: Chinese hamster ovary (CHO) cells, T-REx tetracycline-inducible system, co-transfected with aequorin
Assay: Luminescence readout assay for measuring intracellular calcium, icilin activation
Format: cell-based
Settings: CHO cells expressing human TRPM8, aequorin luminescence, 1 μM icilin activation; read-out: hTRPM8 IC50
In short: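 The read-out was luminescence reporting intracellular calcium, recorded by a CCD-based luminometer. Compounds were preincubated for 2.5 min before agonist challenge with 1 μM icilin. Human TRPM8 was expressed in a stable T-REx CHO line, induced with 0.5 μg/mL tetracycline the day before.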

T1 sequence (Q7Z2W7 whole entry): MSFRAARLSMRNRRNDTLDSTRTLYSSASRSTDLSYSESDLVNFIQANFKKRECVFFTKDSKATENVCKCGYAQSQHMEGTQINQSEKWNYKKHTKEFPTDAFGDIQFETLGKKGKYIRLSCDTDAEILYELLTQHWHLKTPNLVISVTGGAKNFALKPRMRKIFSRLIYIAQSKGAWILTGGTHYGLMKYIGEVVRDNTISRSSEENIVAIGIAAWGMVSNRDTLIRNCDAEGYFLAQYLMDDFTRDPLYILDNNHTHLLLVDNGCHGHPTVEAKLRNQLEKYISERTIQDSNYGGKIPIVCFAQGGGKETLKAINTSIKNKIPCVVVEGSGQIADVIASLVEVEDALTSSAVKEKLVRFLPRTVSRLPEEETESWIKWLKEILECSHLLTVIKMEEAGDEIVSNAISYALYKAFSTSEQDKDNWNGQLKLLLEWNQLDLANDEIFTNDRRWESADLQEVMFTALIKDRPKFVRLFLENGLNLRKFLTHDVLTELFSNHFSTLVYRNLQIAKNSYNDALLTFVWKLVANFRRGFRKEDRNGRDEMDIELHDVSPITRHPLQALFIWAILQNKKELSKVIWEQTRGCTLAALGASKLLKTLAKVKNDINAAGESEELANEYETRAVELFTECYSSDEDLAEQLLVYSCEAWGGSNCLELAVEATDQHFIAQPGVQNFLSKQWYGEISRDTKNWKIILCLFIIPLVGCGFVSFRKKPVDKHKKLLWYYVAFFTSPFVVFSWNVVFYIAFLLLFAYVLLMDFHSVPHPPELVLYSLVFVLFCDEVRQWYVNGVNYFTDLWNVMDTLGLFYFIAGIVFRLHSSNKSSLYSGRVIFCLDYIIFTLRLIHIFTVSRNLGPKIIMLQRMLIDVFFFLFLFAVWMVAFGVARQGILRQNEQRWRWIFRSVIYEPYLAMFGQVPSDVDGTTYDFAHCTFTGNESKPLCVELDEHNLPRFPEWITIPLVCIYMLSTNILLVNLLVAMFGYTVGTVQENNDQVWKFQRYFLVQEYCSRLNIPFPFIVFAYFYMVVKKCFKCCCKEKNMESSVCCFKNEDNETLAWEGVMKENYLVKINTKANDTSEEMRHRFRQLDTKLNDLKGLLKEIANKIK

SMILES	IC50 [nM]
Cc1cc(F)cc([C@H](NC(=O)c2ccc(=O)n(C)c2)c2ncccc2F)c1 [Example 326, (S)-N-((3-fluoro-5-methylphenyl)(3-fluoropyridin-2-yl)methyl)-1-methyl-6-oxo-1,6-dihydropyridine-3-carboxamide]	3210
O=C(N[C@@H](c1ccc(F)cc1)c1ncccc1F)c1ccc(=O)[nH]c1 [Example 340, (S)-N-((4-fluorophenyl)(3-fluoropyridin-2-yl)methyl)-6-oxo-1,6-dihydropyridine-3-carboxamide]	808
O=C(N[C@@H](c1ccc(C(F)(F)F)cc1)c1ncccc1C(F)(F)F)c1cccc(OC(F)(F)F)c1 [Example 219, (S)-3-(trifluoromethoxy)-N-((4-(trifluoromethyl)phenyl)(3-(trifluoromethyl)pyridin-2-yl)methyl)benzamide]	137
O=C(N[C@@H](c1ccc(OC(F)(F)F)cc1)c1ncccc1F)c1ccc2cccnc2c1 [Example 2, (S)-N-((3-fluoropyridin-2-yl)(4-(trifluoromethoxy)phenyl)methyl)quinoline-7-carboxamide]	17
O=C(N[C@@H](c1ccc(C(F)(F)F)cc1)c1c(F)cccc1F)c1ccc(=O)[nH]c1 [Example 258, (S)-N-((2,6-difluorophenyl)(4-(trifluoromethyl)phenyl)methyl)-6-oxo-1,6-dihydropyridine-3-carboxamide]	40.7
O=C(N[C@@H](c1ccc(C(F)(F)F)cc1)c1ncccc1C(F)(F)F)c1ccc2c(c1)C(=O)NC2 [Example 265, (S)-3-oxo-N-((4-(trifluoromethyl)phenyl)(3-(trifluoromethyl)-pyridin-2-yl)methyl)isoindoline-5-carboxamide]	62.2
COc1cccc(C(=O)N[C@@H](c2ccc(C(F)(F)F)cc2)c2ncccc2C(F)(F)F)n1 [Example 33, (S)-6-methoxy-N-((4-(trifluoromethyl)phenyl)(3-(trifluoromethyl)pyridin-2-yl)methyl)picolinamide]	125
O=C(N[C@@H](c1ccc(C(F)(F)F)cc1)c1ncccc1F)c1ccc2nccnc2c1 [Example 170, (S)-N-((3-fluoropyridin-2-yl)(4-(trifluoromethyl)phenyl)methyl)quinoxaline-6-carboxamide]	23.5
O=C(N[C@@H](c1ccc(C(F)(F)F)cc1)c1ncccc1C(F)(F)F)[C@H]1CC[C@@H](CO)CC1 [Example 241, (1s,4R)-4-(hydroxymethyl)-N-((S)-(4-(trifluoromethyl)phenyl)(3-(trifluoromethyl)pyridin-2-yl)methyl)cyclohexanecarboxamide]	590
O=C(N[C@@H](c1ccc(C(F)(F)F)cc1)c1ncccc1F)c1ccc(=O)n(Cc2ccccc2)c1 [Example 371, (S)-1-benzyl-N-((3-fluoropyridin-2-yl)(4-(trifluoromethyl)phenyl)methyl)-6-oxo-1,6-dihydropyridine-3-carboxamide]	190
O=C(N[C@@H](c1ccc(C(F)(F)F)cc1)c1ncccc1C(F)(F)F)c1ccc(Cl)cc1 [Example 185, (S)-4-chloro-N-((4-(trifluoromethyl)phenyl)(3-(trifluoromethyl)pyridin-2-yl)methyl)benzamide]	29
O=C(N[C@@H](c1ccc(C(F)(F)F)cc1)c1ncccc1F)c1cccnc1 [Example 203, (S)-N-((3-fluoropyridin-2-yl)(4-(trifluoromethyl)phenyl)methyl)nicotinamide]	135
Cc1cncc(C(=O)N[C@@H](c2ccc(C(F)(F)F)cc2)c2ncccc2C(F)(F)F)c1 [Example 182, (S)-5-methyl-N-((4-(trifluoromethyl)phenyl)(3-(trifluoromethyl)pyridin-2-yl)methyl)nicotinamide 2,2,2-trifluoroacetate]	41.8
Cn1cc(C(=O)N[C@@H](c2ccc(C(F)(F)F)cc2)c2ncccc2Cl)ccc1=O [Example 249, (S)-N-((3-chloropyridin-2-yl)(4-(trifluoromethyl)phenyl)methyl)-1-methyl-6-oxo-1,6-dihydropyridine-3-carboxamide 2,2,2-trifluoroacetate]	13.2
COc1ccc([C@H](NC(=O)c2ccc3cccnc3c2)c2ncccc2C(F)(F)F)cc1F [Example 25, (S)-N-((3-fluoro-4-methoxyphenyl)(3-(trifluoromethyl)pyridin-2-yl)methyl)quinoline-7-carboxamide]	36.8
COc1ccc(C(=O)N[C@@H](c2ccc(C(F)(F)F)cc2)c2ncccc2C(F)(F)F)cc1 [Example 171, (S)-4-methoxy-N-((4-(trifluoromethyl)phenyl)(3-(trifluoromethyl)pyridin-2-yl)methyl)benzamide]	17.3
Cc1cccnc1[C@@H](NC(=O)c1ccc(=O)[nH]c1)c1ccc(OC(F)(F)F)c(F)c1 [Example 347, (S)-N-((3-fluoro-4-(trifluoromethoxy)phenyl)(3-methylpyridin-2-yl)methyl)-6-oxo-1,6-dihydropyridine-3-carboxamide]	10

SMILES	IC50 [nM]
O=C(N[C@@H](c1ccc(C(F)(F)F)cc1)c1ncccc1C(F)(F)F)[C@@H]1CCCO1 [Example 234, (S)-N-((S)-(4-(trifluoromethyl)phenyl)(3-(trifluoromethyl)pyridin-2-yl)methyl)THF-2-carboxamide]	169
O=C(N[C@@H](c1ccc(C(F)(F)F)cc1)c1nc(F)ccc1F)c1ccc(=O)[nH]c1 [Example 291, (S)-N-((3,6-difluoropyridin-2-yl)(4-(trifluoromethyl)phenyl)methyl)-6-oxo-1,6-dihydropyridine-3-carboxamide]	332
O=C(N[C@@H](c1ccc(C(F)(F)F)cc1)c1ncccc1C(F)(F)F)c1cc[nH]c(=O)c1 [Example 44, (S)-2-hydroxy-N-((4-(trifluoromethyl)phenyl)(3-(trifluoromethyl)pyridin-2-yl)methyl)isonicotinamide]	229
CN(C)c1cccc(C(=O)N[C@@H](c2ccc(C(F)(F)F)cc2)c2ncccc2C(F)(F)F)c1 [Example 186, (S)-3-(dimethylamino)-N-((4-(trifluoromethyl)phenyl)(3-(trifluoromethyl)pyridin-2-yl)methyl)benzamide]	49.2
O=C(N[C@@H](c1ccc(C(F)(F)F)c(F)c1)c1ccccc1C(F)(F)F)c1ccc2ncccc2c1 [Example 257, (S)-N-((3-fluoro-4-(trifluoromethyl)phenyl)(2-(trifluoromethyl)phenyl)methyl)quinoline-6-carboxamide]	109
Cc1cc([C@H](NC(=O)c2ccc(=O)n(C)c2)c2ncccc2F)ccc1F [Example 339, (S)-N-((4-fluoro-3-methylphenyl)(3-fluoropyridin-2-yl)methyl)-1-methyl-6-oxo-1,6-dihydropyridine-3-carboxamide]	915
CC(=O)Nc1ccc(C(=O)N[C@@H](c2ccc(C(F)(F)F)cc2)c2ncccc2C(F)(F)F)cn1 [Example 148, (S)-6-acetamido-N-((4-(trifluoromethyl)phenyl)(3-(trifluoromethyl)pyridin-2-yl)methyl)nicotinamide 2,2,2-trifluoroacetate]	257
CC(=O)NC(C)C(=O)N[C@@H](c1ccc(C(F)(F)F)cc1)c1ncccc1C(F)(F)F (stereo partly drawn) [Example 162, 2-acetamido-N-((S)-(4-(trifluoromethyl)phenyl)(3-(trifluoromethriyl)pyridin-2-yl)methyl)propanamide]	4380
O=C(N[C@@H](c1ccc(OC(F)(F)F)c(F)c1)c1ncccc1C(F)(F)F)c1ccc(=O)[nH]c1 [Example 383, (S)-N-((3-fluoro-4-(tritluoromethoxy)phenyl)(3-(trifluoromethyl)pyridin-2-yl)methyl)-6-oxo-1,6-dihydropyridine-3-carboxamide]	7.9
O=C(N[C@@H](c1ccc(C(F)(F)F)cc1)c1ncccc1C(F)(F)F)c1cncnc1O [Example 61, (S)-4-hydroxy-N-((4-(trifluoromethyl)phenyl)(3-(trifluoromethyl)pyridin-2-yl)methyl)pyrimidine-5-carboxamide]	312
O=C(Cc1ccccc1OC(F)(F)F)N[C@@H](c1ccc(C(F)(F)F)cc1)c1ncccc1C(F)(F)F [Example 164]	294
O=C(N[C@@H](c1ccc(C(F)(F)F)cc1)c1ccccc1Br)c1ccc2ncccc2c1 [Example 256, (S)-N-((2-bromophenyl)(4-(trifluoromethyl)phenyl)methyl)quinoline-6-carboxamide 2,2,2-trifluoro acetate, 2,2,2-trifluoroacetate]	302
COc1ccc([C@H](NC(=O)c2ccc(=O)[nH]c2)c2ncccc2F)cc1F [Example 336, (S)-N-((3-fluoro-4-methoxyphenyl)(3-fluoropyridin-2-yl)methyl)-6-oxo-1,6-dihydropyridine-3-carboxamide]	136
Cn1cnc2cc(C(=O)N[C@@H](c3ccc(C(F)(F)F)cc3)c3ncccc3F)ccc21 [Example 394, (S)-N-((3-fluoropyridin-2-yl)(4-(trifluoromethyl)phenyl)methyl)-1-methyl-1H-benzo[d]imidazole-5-carboxamide]	35.4
O=C(O)c1cccc(C(=O)N[C@@H](c2ccc(C(F)(F)F)cc2)c2ncccc2F)c1 [Example 207, (S)-3-(((3-fluoropyridin-2-yl)(4-(trifluoromethyl)phenyl)methyl)carbamoyl)benzoic acid]	121
O=C(N[C@@H](c1ccc(C(F)(F)F)cc1)c1ncccc1F)c1ccc2cccnc2c1 (stereo in doubt) [Example 204, N-((3-fluoropyridin-2-yl)(4-(trifluoromethyl)phenyl)methyl)quinoline-7-carboxamide]	104
N#Cc1ccc(C(=O)N[C@@H](c2ccc(C(F)(F)F)cc2)c2ncccc2C(F)(F)F)cn1 [Example 206, (S)-6-cyano-N-((4-(trifluoromethyl)phenyl)(3-(trifluoromethyl)pyridin-2-yl)methyl)nicotinamide]	67.5
